Test results published in US20240400554A1, “MONOACYLGLYCEROL LIPASE (MAGL) INHIBITORS FOR THE TREATMENT OF PAIN AND RELATED MEDICAL DISORDERS” (Humanwell Pharmaceutical US, Inc., priority 2023, published 2024).

Key:
[1] = molecular target: T1, human recombinant MAGL (monoacylglycerol lipase) (Homo sapiens, UniProt Q99685); test: In vitro MAGL enzyme inhibition assay (Cayman Monoacylglycerol Lipase Inhibitor Screening Assay, 4-nitrophenylacetate hydrolysis); format: biochemical; conditions: 4-nitrophenylacetate substrate, 15 min preincubation, absorbance 405-415 nm
T1 construct: purchased Cayman Chemical Item No. 705192
T1 sequence (Q99685 1-303): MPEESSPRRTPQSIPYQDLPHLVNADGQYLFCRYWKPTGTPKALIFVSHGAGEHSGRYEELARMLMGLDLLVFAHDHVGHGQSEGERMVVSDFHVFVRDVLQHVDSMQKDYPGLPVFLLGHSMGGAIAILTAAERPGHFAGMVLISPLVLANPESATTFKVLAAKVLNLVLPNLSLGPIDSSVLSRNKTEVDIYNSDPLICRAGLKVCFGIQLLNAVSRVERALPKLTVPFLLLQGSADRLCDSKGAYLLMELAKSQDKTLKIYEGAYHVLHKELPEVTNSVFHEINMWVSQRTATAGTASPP
Description: Monoacylglycerol Lipase Inhibitor Screening Assay provides a convenient method for screening human MAGL inhibitors.
Dilute 3 ml of MAGL Assay Buffer (10×) concentrate with 27 ml of ultrapure water. This final 1× Assay Buffer (10 mM Tris-HCl, pH 7.2, containing 1 mM EDTA) should be used in the assay and for the dilution of MAGL enzyme, substrate, and MAGL inhibitor. The 1× Assay Buffer is stable for at least six months if stored at −20° C.
The vial contains 0.5 ml of 17 mM ethanolic solution of 4-nitrophenylacetate. Mix 150 μL of this solution with 450 μl of 1× Assay Buffer prior to testing. This is enough substrate to assay 50 wells. Dilute additional substrate if using the entire plate.
This vial contains 100 μl of a solution of human recombinant MAGL (monoacylglycerol lipase). The thawed enzyme should be stored on ice. Dilute 30 μl of enzyme with 570 μl of 1×MAGL Assay Buffer. This is enough enzyme to assay 50 wells. Dilute additional enzyme if using the entire plate. The diluted enzyme is stable for four hours on ice.
This vial contains 20 nmol of inhibitor. Resuspend in 125 μl of DMSO, then add 125 μl of 1× Assay Buffer and vortex to make an 80 μM stock.
1). 100% Initial Activity Wells—add 150 μl of 1× Assay Buffer, 10 μl of MAGL enzyme, and 10 μl of solvent (same solvent used to dissolve the inhibitor) to three wells.
2). Background Wells—add 160 μl of 1× Assay Buffer and 10 μl of solvent (same solvent used to dissolve the inhibitor) to three wells.
3). Inhibitor/Positive Control Wells—add 150 μl of 1× Assay Buffer, 10 μl of MAGL enzyme, and 10 μl of inhibitor* or positive control inhibitor to the inhibitor wells.
4). Mix the contents of the wells by pipetting gently up and down and incubate for 15 minutes at room temperature. The incubation time for different inhibitors may vary and will need to be optimized by the user.
5). Initiate the reactions by adding 10 μl of MAGL Substrate to all the wells being used. Carefully shake the 96-well plate for 10 seconds to mix and cover with the plate cover. Incubate for ten minutes at room temperature.
6). […] (Tecan Spark 10M Multimode Plate Reader)
1). Determine the average absorbance of each sample.
2). Subtract the average absorbance of the background wells from the average absorbance of the 100% initial activity and the inhibitor wells.
3). Determine the percent inhibition or percent activity for each inhibitor using one of the following equations: […]

[2] = test system: 2% formalin model in SD rats; test: Formalin-induced pain model; format: in vivo; conditions: 3 mg/kg p.o.
Description: A diluted formalin solution is injected subcutaneously into the hind paw of rats using a microsyringe, creating a continuous noxious stimulus that induces spontaneous pain behaviors in the animals. The experiment can record the number of lifts and licks of the rat's foot through an autonomous movement analyzer to assess the degree of pain. This experiment uses a 2% formalin model in SD rats and tests the analgesic activity of compounds by oral administration. After injecting 2% formalin, the number of movements (lifts and licks of the injected foot) from 0-60 min after injecting the formalin solution is recorded and analyzed.
The Maximum Possible Effect (MPE %) is calculated as a percentage:
Note: (1) MPE % for each group is calculated with sham group MPE=100% and vehicle group MPE=0% as standards. (2) Movement counts of the sham group are subtracted to exclude the impact of background noise on the experiment. (2) “Sham” represents the average value of the sham group; “Vehicle-Sham” represents the average value of the vehicle group minus the sham group.
Results are presented as mean values with standard error. Data from each group are analyzed and graphed using GraphPad Prism 8 software. Statistical analysis is conducted using one-way ANOVA to determine statistical differences between groups, with t-tests used for comparisons between two groups. A p-value <0.05 is considered statistically significant.

IC50 [1]: 18.8 nM
SMILES: O=C(OC(CO)C(F)(F)F)N1CCC(c2nn3c(c2C2CC2)CCc2cc(F)ccc2-3)CC1 (stereo not drawn) [Compound 40, 1,1,1-trifluoro-3-hydroxypropan-2-yl 4-(3-cyclopropyl-7-fluoro-4,5-dihydropyrazolo[1,5-a]quinolin-2-yl)piperidine-1-carboxylate]
Experimental Results (analgesic activity in the formalin model) [2]: effective | inhibition in vivo at 3 mg/kg ([2]; Rattus norvegicus, po, 1 h, movements (lifts and licks) 0-60 min after formalin, read-out: MPE % (Maximum Possible Effect)): 41%
